The nature of series [1]: IV and PO single dose pharmacokinetic studies in SD rats. In kind it is in vivo. Particulars: Sprague-Dawley, rat, plasma, male SD rats, oral gavage 20 mg/kg vs IV bolus 2 mg/kg. On the procedure:
The pharmacokinetics of selected compounds was characterized in male Sprague-Dawley (SD) rats (250-300 g). […] The intravenous (IV) dosing vehicle was 5% ethanol and 95% of 20% 2-hydroxypropyl β-cyclodextrin in water. The oral dosing vehicle was 33% of Microemulsion Preconcentrate #5 (a lipid based self-emulsifying drug delivery system, SEDDS) and 67% of 50 mM citrate buffer (final pH 3.6).
Serial blood samples (approximately 0.3 mL each) were collected from jugular vein or other suitable vein at specified time points. For the IV dosing group, the blood samples were collected predose and at 0.08, 0.25, 0.50, 1, 3, 6, 8, and 24 hours after the start of dosing. For the oral group, the blood samples were collected predose and at 0.08, 0.25, 0.50, 1, 3, 6, 8, and 24 hours after dosing. The blood samples were collected into VACUTAINER™ tubes containing EDTA-K3 as the anti-coagulant and were centrifuged at approximately 4° C. to obtain plasma. The plasma samples were stored at −20° C. until analysis by LC/MS/MS.
A bioanalytical method utilizing high performance liquid chromatography coupled to tandem mass spectrometry (LC/MS/MS) was developed for analysis of the selected compound in rat plasma. Detection was performed using multiple reaction monitoring (MRM); Ions representing the precursor (M+H)^+ species was selected in quadrupole 1 (Q1) and collided with nitrogen gas in the collision cell (Q2) to generate specific product ion, which was subsequently monitored by quadrupole 3 (Q3). Standard curve and quality control samples were prepared in male rat plasma and processed in the same way as the test samples to generate quantitative data.
Pharmacokinetic parameters were generated using non-compartmental pharmacokinetic analysis (Phoenix WinNonlin, version 6.3). Values below the lower limit of quantification (LLOQ) were assigned a value of zero if predose and treated as missing thereafter. Area under the curve (AUC) was calculated using the linear trapezoidal rule. The oral bioavailability (% F) was determined by comparison of the area under the curve (AUC) of the compound in plasma following oral administration to that generated following intravenous administration.

The test system of series [2] is GT1a replicon encoding NS5A mutation Y93H. As to the kind of experiment: Transient replication assay, GT1a replicon with NS5A mutation Y93H. In kind it is cell-based. The note with it: Hepatitis C virus, read-out: EC50 1a Y93H.
Series [3] has as its system HCV GT 3a replicon. As to the kind of experiment: HCV replicon assay, GT2a chimeric replicon expressing NS5A from GT3a strain S52. It is filed as cell-based. Particulars: Hepatitis C virus, 72 h, read-out: EC50 3a. The procedure:
The activity of compounds was determined against HCV replicons representing genotypes (GT) 1a, 1b, 2a, and 3a. To generate stable Huh-7.5-based cell lines, HCV replicons were engineered to express the Renilla luciferase reporter (hRluc) fused to the neomycin phosphotransferase (Neo) gene. GT2a and GT3a HCV replicons were based on the JFH-1 subgenomic replicon (Kato et al. 2003 Gastroenterology, 125:1808-1817), in which the NS5A gene was replaced with that of strains J6 and S52 (GT2a and G3a, respectively). The activity of compounds against GT1a replicons encoding NS5A mutations (M28T, Q30R, L31M, Y93C, and Y93H) was also determined in a transient replication assay. The parental GT1a and GT2a replicons (pH/SG-Neo(L+I) and pSG-Neo-JFH1, respectively) were licensed from Apath LLC (Saint Louis, Mo.). The parental GT 1b replicon (pFKi389lucubineo_3_3′_ET) was licensed from ReBLikon GmbH (Germany). HCV replicons were constructed by standard molecular biology techniques described below. All replicon constructs were verified by restriction enzyme digestion and DNA sequencing.
The plasmid pSG-hRlucNeo-JFH1 was generated from pSG-Neo-JFH1 (Kato et al. 2003, Gastroentrology 125:1808-1817). A fragment containing the JFH-1 5′ NTR—hRluc-Neo gene and two unique restriction sites (AgeI and PmeI) was synthesized (Integrated DNA Technologies, Coralville, Iowa). The resulting synthetic plasmid was digested with AgeI and PmeI and the excised fragment (5′NTR-hRluc-Neo) was ligated into pSG-Neo-JFH1 digested with the same enzymes to generate pSG-hRlucNeo-JFH1. To allow expression of heterologous NS5A sequences, an NS5A shuttle vector was generated from pSG-Neo-JFH1, in which the entire coding sequence of NS5A plus the first eight codons of NS5B were replaced with an AfeI restriction site. This was done by Infusion cloning (Clontech, Mountain View, Calif.) from two PCR products that were generated using pSG-Neo-JFH1 as a template and the following primer pairs:
Underlined sequences denote regions of overlap necessary for Infusion cloning. Purified PCR products were cloned directly into an NsiI/SnaBI digested pSG-Neo-JFH1 following the manufacturer's instructions to generate pSG-Neo-JFH1-5Ashuttle. The 2023 base pair AgeI/PmeI fragment from pSG-hRlucNeo-JFH1 was then ligated into pSG-Neo-JFH1-5Ashuttle to generate pSG-hRlucNeo-JFH1-5Ashuttle. To generate the 2a-2a-(J6) and 2a-3a-(S52) NS5A chimeric replicons, the full length NS5A sequences from GT2a strain J6 (accession AF177036) and GT3a strain S52 (accession GU814263), with the addition of the first eight codons of JFH-1 NS5B (5′-TCCATGTCATACTCCTGGACCGGG-3′), were synthesized by GeneArt (Life Technologies, Carlsbad Calif.). J6 and S52 NS5A sequences were then PCR amplified from the synthetic clones using the appropriate forward primer:
Underlined sequences denote regions of overlap with pSG-hRlucNeo-JFH1-5Ashuttle necessary for Infusion cloning. Purified PCR products were directly cloned into AfeI-digested shuttle vector by Infusion cloning following the manufacturer's instructions.
Stable HCV replicon cell lines were grown in complete media (Dulbecco's modified Eagle medium [DMEM], 2 mM L-glutamine, 0.1 mM essential amino acids, 1 mM sodium pyruvate, 10% heat inactivated fetal bovine serum) with the addition 500 μg/ml […] (G418). Huh7-lunet cells were maintained in the same medium without the addition of G418. Cells were routinely passaged at a dilution of 1:4 two times a week. The assay medium for both luciferase reporter HCV replicon and cytotoxicity assays used phenol red-free DMEM and lacked G418. For each stable replicon assay, a sixteen point half-log dilution series of compound was stamped (0.5 ul compound per well) into three replica 384-well plates, to which cells were added directly (4000 cells/well). […]
Background: Replicon systems follow genome replication, usually without infectious particles.

pEC50: −log10 of the molar value.

These results are taken from US10407445B2, “Hepatitis C virus inhibitors” (ENANTA PHARMACEUTICALS, INC., priority 2013, dated 2019).

`COC(=O)N[C@H](C(=O)N1CCC[C@H]1c1ncc(-c2ccc(-c3ccc4c(ccc5nc([C@@H]6C[C@@]7(CCCOC7)CN6C(=O)[C@@H](NC(=O)OC)C(C)C)[nH]c54)c3)cc2)[nH]1)C(C)C` [Compound 44]: the bioavailability in series [1] was found to be 14.8%. Also, the negative-log EC50 (pEC50) (as a rule, the EC50 on a negative log10 scale, so that one unit is a factor of ten) was 8.22 in series [2] and 10.22 in series [3].
On the same counts, the results for `COC(=O)N[C@H](C(=O)N1C[C@]2(CCCOC2)C[C@H]1c1nc2ccc3cc(-c4ccc(-c5cnc([C@@H]6C[C@@H]7CCC[C@@H]7N6C(=O)[C@@H](NC(=O)OC)C(C)C)[nH]5)cc4)ccc3c2[nH]1)C(C)C` [Compound 10] are 5.7%, 8.40 and 9.70.
As for `COC(=O)N[C@H](C(=O)N1C[C@]2(CCCOC2)C[C@H]1c1ncc(-c2ccc(-c3ccc4c(ccc5nc([C@@H]6C[C@H]7C[C@H]7N6C(=O)[C@@H](NC(=O)OC)C(C)C)[nH]c54)c3)cc2)[nH]1)C(C)C` [Compound 18], the bioavailability in series [1] came to 3.3%. For the same compound, the pEC50 was 8.22 in series [2] and 9.00 in series [3].
On the same counts, the results for `COC(=O)N[C@H](C(=O)N1C[C@]2(CCCOC2)C[C@H]1c1nc2ccc3cc(-c4ccc5c(ccc6nc([C@@H]7C[C@@]8(CCCOC8)CN7C(=O)[C@@H](NC(=O)OC)C(C)C)[nH]c65)c4)ccc3c2[nH]1)C(C)C` [Compound 31] are 3.8%, 9.70 and 10.00.
For `COC(=O)N[C@H](C(=O)N1C[C@]2(CCCOC2)C[C@H]1c1ncc(-c2ccc(-c3ccc(-c4cnc([C@@H]5C[C@@H]6CCCC[C@@H]6N5C(=O)[C@@H](NC(=O)OC)C(C)C)[nH]4)cc3)cc2)[nH]1)C(C)C` [Compound 32], the bioavailability in series [1] turned out to be 24.1%. The pEC50 was 8.15 in series [2] and 8.70 in series [3].
`COC(=O)N[C@H](C(=O)N1C[C@]2(CCCOC2)C[C@H]1c1ncc(-c2ccc(-c3ccc(-c4cnc([C@@H]5C[C@@H]6CCC[C@@H]6N5C(=O)[C@@H](NC(=O)OC)C(C)C)[nH]4)cc3)cc2)[nH]1)C(C)C` [Compound 37]: in series [1], the bioavailability came out at 114%. Also, the figures for the negative logarithm of the EC50 (pEC50) in series [2] and in series [3] were 7.82 and 8.52, respectively.
`COC(=O)N[C@H](C(=O)N1[C@H](c2nc3ccc4cc(-c5ccc(-c6cnc([C@@H]7C[C@@]8(CCCOC8)CN7C(=O)[C@@H](NC(=O)OC)C7C[C@@H](C)O[C@H](C)C7)[nH]6)cc5)ccc4c3[nH]2)C[C@@H]2CCCC[C@@H]21)C(C)C` (stereo in doubt) [Compound 38]: the bioavailability in series [1] was found to be 12.4%. Also, the pEC50 in series [2] was 9.70; in series [3], 10.15.
As to `COC(=O)N[C@H](C(=O)N1CC2(CC2)C[C@H]1c1nc2ccc3cc(-c4ccc5c(ccc6nc([C@@H]7C[C@@]8(CCCOC8)CN7C(=O)[C@@H](NC(=O)OC)C(C)C)[nH]c65)c4)ccc3c2[nH]1)C(C)C` [Compound 7], in series [1], the bioavailability is 2.5%. Moreover, the pEC50 in series [2] was 9.00; in series [3], 10.30.
For `COC(=O)N[C@H](C(=O)N1CCC[C@H]1c1ncc(-c2ccc(-c3ccc4c(ccc5nc([C@@H]6CCCN6C(=O)[C@@H](NC(=O)OC)C(C)C)[nH]c54)c3)cc2)[nH]1)C(C)C` [Example 102], the pEC50 in series [2] is 7.66; in series [3], 10.22.
Consider `COC(=O)N[C@H](C(=O)N1C[C@]2(CCCOC2)C[C@H]1c1ncc(-c2ccc(-c3ccc4c(ccc5nc([C@@H]6C[C@@H]7C[C@@H]7N6C(=O)[C@@H](NC(=O)OC)C(C)C)[nH]c54)c3)cc2)[nH]1)C(C)C` [Compound 20], for which the values for the pEC50 in series [2] and in series [3] were 7.74 and 9.00, respectively.
Turning to `COC(=O)N[C@H](C(=O)N1C[C@@]2(CCCO2)C[C@H]1c1ncc(-c2ccc(-c3ccc4c(ccc5nc([C@@H]6CCCN6C(=O)[C@@H](NC(=O)OC)C(C)C)[nH]c54)c3)cc2)[nH]1)C(C)C` [Example 82], the pEC50 in series [2] and in series [3] was 8.30 throughout.
With `COC(=O)N[C@H](C(=O)N1CCC[C@H]1c1ncc(-c2ccc(-c3ccc4c(c3)OCc3nc([C@@H]5C[C@@]6(CCCOC6)CN5C(=O)[C@@H](NC(=O)OC)C(C)C)[nH]c3-4)cc2)[nH]1)C(C)C` [Compound 33], the values for the pEC50 in series [2] and in series [3] were 8.40 and 9.70, respectively.
Regarding `COC(=O)N[C@H](C(=O)N1C[C@@]2(CCCOC2)C[C@H]1c1ncc(-c2ccc(-c3ccc4c(ccc5nc([C@@H]6CCCN6C(=O)[C@@H](NC(=O)OC)C(C)C)[nH]c54)c3)cc2)[nH]1)C(C)C` [Compound 27], the pEC50 in series [2] was 9.00; in series [3] it was 6.53.
On to `COC(=O)N[C@H](C(=O)N1[C@H](c2nc3ccc4cc(-c5ccc(-c6cnc([C@@H]7C[C@@]8(CCCOC8)CN7C(=O)[C@H](NC(=O)OC)C7C[C@@H](C)O[C@H](C)C7)[nH]6)cc5)ccc4c3[nH]2)C[C@@H]2CCCC[C@@H]21)C(C)C` (stereo in doubt) [Compound 39], for which the pEC50 in series [2] was 6.67; in series [3], 7.32.
On to `COC(=O)N[C@H](C(=O)N1CCC[C@H]1c1nc2ccc3cc(-c4ccc5c(ccc6nc([C@@H]7CCCN7C(=O)[C@@H](NC(=O)OC)C(C)C)[nH]c65)c4)ccc3c2[nH]1)C(C)C` [Example 101], for which the values for the pEC50 in series [2] and in series [3] were 7.60 and 10.30, respectively.
As to `COC(=O)N[C@H](C(=O)N1CCC[C@H]1c1nc2ccc(C#Cc3ccc4c(ccc5nc([C@@H]6CCCN6C(=O)[C@@H](NC(=O)OC)C(C)C)[nH]c54)c3)cc2[nH]1)C(C)C` [Example 103], the pEC50 is 6.95 in series [2] and 9.52 in series [3].
As for `COC(=O)N[C@H](C(=O)N1C[C@@]2(CCOC2)C[C@H]1c1ncc(-c2ccc(-c3ccc4c(ccc5nc([C@@H]6CCCN6C(=O)[C@@H](NC(=O)OC)C(C)C)[nH]c54)c3)cc2)[nH]1)C(C)C` [Compound 50], the figures for the pEC50 in series [2] and in series [3] were 8.15 and 8.00, respectively.
With `COC(=O)N[C@H](C(=O)N1C[C@]2(CCCOC2)C[C@H]1c1ncc(-c2ccc(-c3ccc4c(c3)OCc3nc([C@@H]5C[C@@H]6CCCC[C@@H]6N5C(=O)[C@@H](NC(=O)OC)C(C)C)[nH]c3-4)cc2)[nH]1)C(C)C` [Compound 42], the figures for the pEC50 in series [2] and in series [3] were 7.80 and 9.00, respectively.
